Experimental data taken from patent US9738612B2, “Methylacryloyl benzimidazolone derivative and anti-tumour use thereof” (SHANGHAI NATURE STANDARD R&D AND BIOTECH CO., LTD, priority 2014, dated 2017).

Experiments:
PC-3 = test: Sulforhodamine B proliferation; format: cell-based; details: Homo sapiens, PC-3, 72 h, 72 h, SRB, read-out: Inhibitory rate % (PC-3)
Experimental: (§1) At a certain density cells were seeded in 96-well plates, and adhered overnight. The medium was discarded after incubating cells with compounds to be tested for 72 h, then 100μL/well trichloroacetic acid (TCA) was added to fix cells at 4° C. for 2h. After that the fixing solution was discarded. Cells were gently washed 5 times with distilled water, dried at room temperature. Cells were stained with 4 mg/mL SRB staining solution (100 μL/well) at room temperature for 15min. The staining solution was discarded, and cells were washed five times with 1% acetic acid (HAC) and dried at room temperature. To the plate tris base buffer (10 mM) was added at 150 μL/well and placed at room temperature for 15min. The OD values were measured at 540 nm wavelength in a microplate reader. Inhibitory rate (%)=(OD valuecontrol wells−OD valuedrugs treated wells)/OD valuecontrol wells×100%.
(§2) The results were shown in Table 2, the working concentrations of MK2206 and compounds of FD series were 10 μM. As shown in this Table, PC-3 is a prostate cancer cell line purchased from Cell Resource Center of Shanghai Institutes for Biological Sciences, Chinese Academy of Sciences, A549 is a lung cancer cell line purchased from Cell Resource Center of Shanghai Institutes for Biological Sciences, Chinese Academy of Sciences, and SGC-7901 is a gastric cancer cell line purchased from Cell Resource Center of Shanghai Institutes for Biological Sciences, Chinese Academy of Sciences.

SGC-7901 = test: Sulforhodamine B proliferation; format: cell-based; details: Homo sapiens, SGC-7901, 72 h, SRB, read-out: Inhibitory rate % (SGC-7901)
Experimental: as §1, §2

A549 = test: Sulforhodamine B proliferation; format: cell-based; details: Homo sapiens, A549, 72 h, SRB, read-out: Inhibitory rate % (A549)
Experimental: as §1, §2

GSK3β(h) = molecular target: T1, GSK3β(h) (Homo sapiens, UniProt P49841); test: Tumor-associated kinase inhibition test; format: biochemical; details: read-out: Inhibitory rate (%)
T1 construct: purchased Eurofins Pharma Discovery Services UK Limited (contract testing)
From the text: (§3) Eurofins Pharma Discovery Services UK Limited completed and reported this experiment.

Itk(h) = molecular target: T2, Itk(h) (Homo sapiens, UniProt Q08881); test: Tumor-associated kinase inhibition test; format: biochemical; details: read-out: Inhibitory rate (%)
T2 construct: purchased Eurofins Pharma Discovery Services UK Limited (contract testing)
From the text: as §3

Yes(h) = molecular target: T3, Yes(h) (Homo sapiens, UniProt P07947); test: Tumor-associated kinase inhibition test; format: biochemical; details: read-out: Inhibitory rate (%)
T3 construct: purchased Eurofins Pharma Discovery Services UK Limited
T3 sequence (P07947 whole entry): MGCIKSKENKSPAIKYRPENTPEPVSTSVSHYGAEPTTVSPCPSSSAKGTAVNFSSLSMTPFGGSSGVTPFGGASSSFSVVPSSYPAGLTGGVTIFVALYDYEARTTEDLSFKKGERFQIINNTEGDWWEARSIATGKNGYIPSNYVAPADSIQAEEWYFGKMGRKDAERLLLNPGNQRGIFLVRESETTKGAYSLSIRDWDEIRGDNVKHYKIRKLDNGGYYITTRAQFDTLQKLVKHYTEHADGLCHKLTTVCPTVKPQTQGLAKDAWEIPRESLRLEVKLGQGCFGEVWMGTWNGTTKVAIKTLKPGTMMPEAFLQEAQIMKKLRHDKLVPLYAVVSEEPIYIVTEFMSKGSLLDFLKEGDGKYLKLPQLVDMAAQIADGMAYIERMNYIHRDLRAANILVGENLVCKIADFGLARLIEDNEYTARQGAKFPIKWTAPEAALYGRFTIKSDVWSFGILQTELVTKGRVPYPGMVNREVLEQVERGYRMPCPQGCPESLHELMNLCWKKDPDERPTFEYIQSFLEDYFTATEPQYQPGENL
From the text: as §3

Bmx(h) = molecular target: T4, Bmx(h) (Homo sapiens, UniProt P51813); test: Tumor-associated kinase inhibition test; format: biochemical; details: read-out: Inhibitory rate (%)
T4 construct: purchased Eurofins Pharma Discovery Services UK Limited (contract assay service)
From the text: as §3

p70S6K(h) = molecular target: T5, p70S6K(h) (Homo sapiens, UniProt P23443); test: Tumor-associated kinase inhibition test; format: biochemical; details: read-out: Inhibitory rate (%)
T5 construct: purchased Eurofins Pharma Discovery Services UK Limited
From the text: as §3

ZAP-70(h) = molecular target: T6, ZAP-70(h) (Homo sapiens, UniProt P43403); test: Tumor-associated kinase inhibition test; format: biochemical; details: read-out: Inhibitory rate (%)
T6 construct: purchased Eurofins Pharma Discovery Services UK Limited
From the text: as §3

B-Raf(h) = molecular target: T7, B-Raf(h) (Homo sapiens, UniProt P15056); test: Tumor-associated kinase inhibition test; format: biochemical; details: read-out: Inhibitory rate (%)
T7 construct: purchased Eurofins Pharma Discovery Services UK Limited (contract assay service)
T7 sequence (P15056 whole entry): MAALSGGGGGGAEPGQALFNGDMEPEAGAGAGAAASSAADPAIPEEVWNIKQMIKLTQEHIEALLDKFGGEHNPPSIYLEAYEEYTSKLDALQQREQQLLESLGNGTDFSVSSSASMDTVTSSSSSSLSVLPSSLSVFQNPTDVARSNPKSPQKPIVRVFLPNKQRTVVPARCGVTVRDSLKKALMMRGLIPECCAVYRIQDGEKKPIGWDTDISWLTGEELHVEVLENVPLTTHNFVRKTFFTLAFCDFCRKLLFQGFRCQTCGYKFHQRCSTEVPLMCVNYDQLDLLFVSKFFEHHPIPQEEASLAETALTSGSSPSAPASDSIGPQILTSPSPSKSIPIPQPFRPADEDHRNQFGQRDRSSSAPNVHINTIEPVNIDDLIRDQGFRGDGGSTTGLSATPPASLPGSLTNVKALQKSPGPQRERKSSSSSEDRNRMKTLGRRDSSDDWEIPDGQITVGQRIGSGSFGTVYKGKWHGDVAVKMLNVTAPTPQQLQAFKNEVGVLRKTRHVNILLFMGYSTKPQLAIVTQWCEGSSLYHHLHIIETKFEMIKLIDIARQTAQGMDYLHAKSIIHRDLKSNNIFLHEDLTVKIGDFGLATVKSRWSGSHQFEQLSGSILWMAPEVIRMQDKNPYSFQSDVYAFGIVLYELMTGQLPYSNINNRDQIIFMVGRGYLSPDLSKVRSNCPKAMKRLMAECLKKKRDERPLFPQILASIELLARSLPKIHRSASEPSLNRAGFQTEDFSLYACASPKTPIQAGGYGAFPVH
From the text: as §3

ROCK-I(h) = molecular target: T8, ROCK-I(h) (Homo sapiens, UniProt Q13464); test: Tumor-associated kinase inhibition test; format: biochemical; details: read-out: Inhibitory rate (%)
T8 construct: purchased Eurofins Pharma Discovery Services UK Limited
From the text: as §3

Plk1(h) = molecular target: T9, Plk1(h) (Homo sapiens, UniProt P53350); test: Tumor-associated kinase inhibition test; format: biochemical; details: read-out: Inhibitory rate (%)
T9 construct: purchased Eurofins Pharma Discovery Services UK Limited
From the text: as §3

FGFR3(h) = molecular target: T10, FGFR3(h) (Homo sapiens, UniProt P22607); test: Tumor-associated kinase inhibition test; format: biochemical; details: read-out: Inhibitory rate (%)
T10 construct: purchased Eurofins Pharma Discovery Services UK Limited (contract testing)
T10 sequence (P22607 23-806): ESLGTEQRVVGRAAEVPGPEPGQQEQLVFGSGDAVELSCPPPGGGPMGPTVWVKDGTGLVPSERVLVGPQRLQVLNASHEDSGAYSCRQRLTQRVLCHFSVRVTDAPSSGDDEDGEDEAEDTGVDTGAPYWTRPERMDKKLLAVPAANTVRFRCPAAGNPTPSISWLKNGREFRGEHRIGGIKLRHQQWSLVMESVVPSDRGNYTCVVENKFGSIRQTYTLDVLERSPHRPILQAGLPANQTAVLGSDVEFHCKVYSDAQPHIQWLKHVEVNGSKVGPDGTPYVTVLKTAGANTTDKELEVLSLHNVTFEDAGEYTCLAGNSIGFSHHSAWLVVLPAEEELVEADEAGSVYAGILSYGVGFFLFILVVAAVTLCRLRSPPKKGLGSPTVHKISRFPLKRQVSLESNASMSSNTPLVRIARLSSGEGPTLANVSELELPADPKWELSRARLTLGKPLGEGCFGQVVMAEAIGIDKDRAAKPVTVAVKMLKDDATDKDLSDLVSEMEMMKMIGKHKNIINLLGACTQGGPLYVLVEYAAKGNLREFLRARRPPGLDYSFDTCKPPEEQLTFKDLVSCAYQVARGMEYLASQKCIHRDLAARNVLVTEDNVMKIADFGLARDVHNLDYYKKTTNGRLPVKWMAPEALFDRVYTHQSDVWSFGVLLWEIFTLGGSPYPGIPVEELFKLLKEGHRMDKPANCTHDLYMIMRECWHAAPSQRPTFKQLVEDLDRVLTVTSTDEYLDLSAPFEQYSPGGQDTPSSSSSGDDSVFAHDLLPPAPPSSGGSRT
From the text: as §3

CaMKIV(h) = molecular target: T11, CaMKIV(h) (Homo sapiens, UniProt Q16566); test: Tumor-associated kinase inhibition test; format: biochemical; details: read-out: Inhibitory rate (%)
T11 construct: purchased Eurofins Pharma Discovery Services UK Limited (contract assay service)
From the text: as §3

B-Raf(V599E)(h) = molecular target: T12, B-Raf(V599E)(h) (Homo sapiens, UniProt P15056, V600E); test: Tumor-associated kinase inhibition test; format: biochemical; details: read-out: Inhibitory rate (%)
T12 construct: purchased Eurofins Pharma Discovery Services UK Limited (contract assay service)
From the text: as §3

PI3Kinase(p110δ/p85α)(h) = molecular target: T13, PI3Kinase(p110δ/p85α)(h) (Homo sapiens, UniProt O00329); test: Tumor-associated kinase inhibition test; format: biochemical; details: read-out: Inhibitory rate (%)
T13 construct: purchased Eurofins Pharma Discovery Services UK Limited (contract assay)
From the text: as §3

CHK2(h) = molecular target: T14, CHK2(h) (Homo sapiens, UniProt O96017); test: Tumor-associated kinase inhibition test; format: biochemical; details: read-out: Inhibitory rate (%)
T14 construct: purchased Eurofins Pharma Discovery Services UK Limited (contract assay service)
From the text: as §3

Ron(h) = molecular target: T15, Ron(h) (Homo sapiens, UniProt Q04912); test: Tumor-associated kinase inhibition test; format: biochemical; details: read-out: Inhibitory rate (%)
T15 construct: purchased Eurofins Pharma Discovery Services UK Limited
From the text: as §3

PAK2(h) = molecular target: T16, PAK2(h) (Homo sapiens, UniProt Q13177); test: Tumor-associated kinase inhibition test; format: biochemical; details: read-out: Inhibitory rate (%)
T16 construct: purchased Eurofins Pharma Discovery Services UK Limited
T16 sequence (Q13177 whole entry): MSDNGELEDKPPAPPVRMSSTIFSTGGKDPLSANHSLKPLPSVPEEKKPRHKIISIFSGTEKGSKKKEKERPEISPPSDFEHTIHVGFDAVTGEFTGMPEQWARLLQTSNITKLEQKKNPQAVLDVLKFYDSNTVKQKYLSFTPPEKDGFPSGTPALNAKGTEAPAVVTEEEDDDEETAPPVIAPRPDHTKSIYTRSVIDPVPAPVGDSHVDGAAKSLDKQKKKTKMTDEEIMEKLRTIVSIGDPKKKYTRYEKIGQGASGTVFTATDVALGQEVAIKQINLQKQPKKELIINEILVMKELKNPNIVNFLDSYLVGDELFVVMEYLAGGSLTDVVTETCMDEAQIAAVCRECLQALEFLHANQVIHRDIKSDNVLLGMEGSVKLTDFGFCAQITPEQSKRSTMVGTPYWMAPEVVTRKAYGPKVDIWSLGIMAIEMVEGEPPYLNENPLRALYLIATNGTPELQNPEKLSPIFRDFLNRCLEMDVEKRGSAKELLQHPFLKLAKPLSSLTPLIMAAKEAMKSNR
From the text: as §3

PKCμ(h) = molecular target: T17, PKCμ(h) (Homo sapiens, UniProt Q15139); test: Tumor-associated kinase inhibition test; format: biochemical; details: read-out: Inhibitory rate (%)
T17 construct: purchased Eurofins Pharma Discovery Services UK Limited
T17 sequence (Q15139 whole entry): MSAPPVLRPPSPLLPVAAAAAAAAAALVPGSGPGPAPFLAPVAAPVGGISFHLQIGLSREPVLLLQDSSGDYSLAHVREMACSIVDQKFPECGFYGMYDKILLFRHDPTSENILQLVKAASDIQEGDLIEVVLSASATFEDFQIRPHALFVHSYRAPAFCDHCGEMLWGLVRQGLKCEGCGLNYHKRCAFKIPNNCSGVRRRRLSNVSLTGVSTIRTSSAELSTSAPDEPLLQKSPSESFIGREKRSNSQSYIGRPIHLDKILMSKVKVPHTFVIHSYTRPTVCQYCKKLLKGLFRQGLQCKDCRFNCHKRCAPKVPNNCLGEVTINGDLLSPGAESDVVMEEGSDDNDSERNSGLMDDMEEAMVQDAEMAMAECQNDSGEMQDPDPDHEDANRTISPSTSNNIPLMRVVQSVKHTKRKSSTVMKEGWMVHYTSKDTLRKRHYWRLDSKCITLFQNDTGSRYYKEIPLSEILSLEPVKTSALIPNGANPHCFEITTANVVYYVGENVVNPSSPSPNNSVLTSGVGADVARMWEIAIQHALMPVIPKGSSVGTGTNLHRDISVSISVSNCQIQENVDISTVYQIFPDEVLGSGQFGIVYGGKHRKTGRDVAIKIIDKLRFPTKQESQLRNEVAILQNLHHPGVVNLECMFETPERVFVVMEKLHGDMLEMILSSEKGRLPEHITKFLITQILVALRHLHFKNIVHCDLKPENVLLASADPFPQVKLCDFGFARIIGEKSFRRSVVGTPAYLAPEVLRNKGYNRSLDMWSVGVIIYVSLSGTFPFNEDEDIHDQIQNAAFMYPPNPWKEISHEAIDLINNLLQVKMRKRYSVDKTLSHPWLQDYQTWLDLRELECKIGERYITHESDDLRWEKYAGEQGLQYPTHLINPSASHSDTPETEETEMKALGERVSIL
From the text: as §3

Blk(h) = molecular target: T18, Blk(h) (Homo sapiens, UniProt P51451); test: Tumor-associated kinase inhibition test; format: biochemical; details: read-out: Inhibitory rate (%)
T18 construct: purchased Eurofins Pharma Discovery Services UK Limited (contract assay service)
T18 sequence (P51451 whole entry): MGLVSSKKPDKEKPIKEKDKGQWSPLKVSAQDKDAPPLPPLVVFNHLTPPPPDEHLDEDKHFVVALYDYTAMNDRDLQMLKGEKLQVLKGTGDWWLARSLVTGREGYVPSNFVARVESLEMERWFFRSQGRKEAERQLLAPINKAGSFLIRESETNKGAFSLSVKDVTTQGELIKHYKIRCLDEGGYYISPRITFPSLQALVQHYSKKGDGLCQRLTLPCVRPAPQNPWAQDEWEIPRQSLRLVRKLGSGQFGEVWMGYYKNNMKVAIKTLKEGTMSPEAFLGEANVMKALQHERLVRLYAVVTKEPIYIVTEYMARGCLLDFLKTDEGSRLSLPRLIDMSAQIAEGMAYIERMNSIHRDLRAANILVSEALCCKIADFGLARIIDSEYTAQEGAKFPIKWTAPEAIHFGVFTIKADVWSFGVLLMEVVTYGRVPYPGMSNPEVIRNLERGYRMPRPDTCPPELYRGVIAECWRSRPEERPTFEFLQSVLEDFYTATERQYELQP
From the text: as §3

Fes(h) = molecular target: T19, Fes(h) (Homo sapiens, UniProt P07332); test: Tumor-associated kinase inhibition test; format: biochemical; details: read-out: Inhibitory rate (%)
T19 construct: purchased Eurofins Pharma Discovery Services UK Limited (contract testing)
From the text: as §3

EGFR(h) = molecular target: T20, EGFR(h) (Homo sapiens, UniProt P00533); test: Tumor-associated kinase inhibition test; format: biochemical; details: read-out: Inhibitory rate (%)
T20 construct: purchased Eurofins Pharma Discovery Services UK Limited (contract testing)
From the text: as §3

MEK1(h) = molecular target: T21, MEK1(h) (Homo sapiens, UniProt Q02750); test: Tumor-associated kinase inhibition test; format: biochemical; details: read-out: Inhibitory rate (%)
T21 construct: purchased Eurofins Pharma Discovery Services UK Limited
From the text: as §3

PI3Kinase(p110α/p85α)(h) = molecular target: T22, PI3Kinase(p110α/p85α)(h) (Homo sapiens, UniProt P42336); test: Tumor-associated kinase inhibition test; format: biochemical; details: read-out: Inhibitory rate (%)
T22 construct: purchased Eurofins Pharma Discovery Services UK Limited (contract assay)
From the text: as §3

IGF-1R(h), activated = molecular target: T23, IGF-1R(h), activated (Homo sapiens, UniProt P08069); test: Tumor-associated kinase inhibition test; format: biochemical; details: read-out: Inhibitory rate (%)
T23 construct: purchased Eurofins Pharma Discovery Services UK Limited (contract testing)
From the text: as §3

CaMKIIβ(h) = molecular target: T24, CaMKIIβ(h) (Homo sapiens, UniProt Q13554); test: Tumor-associated kinase inhibition test; format: biochemical; details: read-out: Inhibitory rate (%)
T24 construct: purchased Eurofins Pharma Discovery Services UK Limited (contract assay service)
From the text: as §3

PKCε(h) = molecular target: T25, PKCε(h) (Homo sapiens, UniProt Q02156); test: Tumor-associated kinase inhibition test; format: biochemical; details: read-out: Inhibitory rate (%)
T25 construct: purchased Eurofins Pharma Discovery Services UK Limited
From the text: as §3

CDK3/cyclinE(h) = molecular target: T26, CDK3/cyclinE(h) (Homo sapiens, UniProt Q00526); test: Tumor-associated kinase inhibition test; format: biochemical; details: read-out: Inhibitory rate (%)
T26 construct: purchased Eurofins Pharma Discovery Services UK Limited (contract assay service)
From the text: as §3

MAPK2(h) = molecular target: T27, MAPK2(h) (Homo sapiens, UniProt P28482); test: Tumor-associated kinase inhibition test; format: biochemical; details: read-out: Inhibitory rate (%)
T27 construct: purchased Eurofins Pharma Discovery Services UK Limited
T27 sequence (P28482 whole entry): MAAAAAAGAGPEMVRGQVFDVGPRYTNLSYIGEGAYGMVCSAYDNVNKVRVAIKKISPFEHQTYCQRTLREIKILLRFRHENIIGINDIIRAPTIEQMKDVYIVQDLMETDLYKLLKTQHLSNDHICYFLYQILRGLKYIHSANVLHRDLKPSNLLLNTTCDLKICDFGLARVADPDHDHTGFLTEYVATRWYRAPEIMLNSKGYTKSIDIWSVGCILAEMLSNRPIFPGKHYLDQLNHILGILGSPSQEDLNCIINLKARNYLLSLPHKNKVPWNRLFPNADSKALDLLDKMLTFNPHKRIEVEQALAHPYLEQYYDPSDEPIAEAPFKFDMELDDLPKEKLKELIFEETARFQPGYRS
From the text: as §3

CaMKI(h) = molecular target: T28, CaMKI(h) (Homo sapiens, UniProt Q14012); test: Tumor-associated kinase inhibition test; format: biochemical; details: read-out: Inhibitory rate (%)
T28 construct: purchased Eurofins Pharma Discovery Services UK Limited (contract assay service)
T28 sequence (Q14012 whole entry): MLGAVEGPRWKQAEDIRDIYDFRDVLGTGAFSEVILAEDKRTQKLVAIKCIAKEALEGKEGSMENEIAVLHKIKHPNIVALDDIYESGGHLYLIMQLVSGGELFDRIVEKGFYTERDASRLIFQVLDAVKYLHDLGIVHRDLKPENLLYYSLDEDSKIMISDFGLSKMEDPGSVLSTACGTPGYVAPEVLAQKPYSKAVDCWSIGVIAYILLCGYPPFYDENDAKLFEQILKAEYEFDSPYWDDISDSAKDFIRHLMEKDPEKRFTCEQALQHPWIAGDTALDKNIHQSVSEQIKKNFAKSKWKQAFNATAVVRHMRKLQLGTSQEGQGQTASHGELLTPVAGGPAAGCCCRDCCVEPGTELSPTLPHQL
From the text: as §3

SMILES: C=C(C)n1c(=O)n(C(C)=O)c2ncc(Br)cc21 [FD162]
- inhibition at 10 µM (PC-3): 62.4%
- inhibition at 10 µM (SGC-7901): 70.2%
- inhibition at 10 µM (A549): 12.1%
- inhibition at 10 µM (GSK3β(h)): 6%
- inhibition at 10 µM (Itk(h)): -7%
- inhibition at 10 µM (Yes(h)): -2%
- inhibition at 10 µM (Bmx(h)): -7%
- inhibition at 10 µM (p70S6K(h)): 3%
- inhibition at 10 µM (ZAP-70(h)): -5%
- inhibition at 10 µM (B-Raf(h)): -6%
- inhibition at 10 µM (ROCK-I(h)): -4%
- inhibition at 10 µM (Plk1(h)): 7%
- inhibition at 10 µM (FGFR3(h)): 7%
- inhibition at 10 µM (CaMKIV(h)): 2%
- inhibition at 10 µM (B-Raf(V599E)(h)): -1%
- inhibition at 10 µM (PI3Kinase(p110δ/p85α)(h)): 3%
- inhibition at 10 µM (CHK2(h)): 4%
- inhibition at 10 µM (Ron(h)): 8%
- inhibition at 10 µM (PAK2(h)): 8%
- inhibition at 10 µM (PKCμ(h)): 6%
- inhibition at 10 µM (Blk(h)): -5%
- inhibition at 10 µM (Fes(h)): -8%
- inhibition at 10 µM (EGFR(h)): 0%
- inhibition at 10 µM (MEK1(h)): -2%
- inhibition at 10 µM (PI3Kinase(p110α/p85α)(h)): -1%
- inhibition at 10 µM (IGF-1R(h), activated): 0%
- inhibition at 10 µM (CaMKIIβ(h)): 2%
- inhibition at 10 µM (PKCε(h)): -1%
- inhibition at 10 µM (CDK3/cyclinE(h)): 7%
- inhibition at 10 µM (MAPK2(h)): -6%
- inhibition at 10 µM (CaMKI(h)): -1%
